Columns and labels:
Type in all cases: cell-based
pre-miR-21 = test: RT-qPCR of pre-miR-21 in CRISPR-Control sgRNA MDA-MB-231 cells; details: 5 μM
Protocol: Two CRISPR-modified MDA-MB-231 cell lines with either a scrambled control guide RNA (“Control sgRNA”; RNase L is expressed) or with an RNase L-targeting guide RNA (“RNase L-Targeting sgRNA”; RNase L protein abundance is knocked down) were used to complete these studies.
MDA-MB-231 cells were treated with compound (0.1% DMSO final concentration) for 24 h, followed by removal of the compound-containing medium and redosing in growth medium for an additional 24 h (total treatment period of 48 h), with the exception of invasion assays in which the cells were treated overnight. For the time-course experiment, MDA-MB-231 cells were treated for the indicated lengths of time. MCF-10A cells, also used in invasion assays, were treated with compound overnight (0.1% DMSO final concentration).
RNA Isolation and Quantitative Real-Time Polymerase Chain Reaction (RT-qPCR). MDAMB-231 cells were cultured as described in “Cell Culture.” After compound treatment, total RNA was extracted using a Quick-RNA Miniprep Kit (Zymo) per the manufacturer's instructions. […] RT-qPCR was performed on a QuantStudio5™ Real-Time PCR Instrument (Applied Biosystems) using Power SYBR Green Master Mix (Applied Biosystems), and the resulting data were analyzed using the ΔΔCt method.

PDCD4 = test: Western blot of PDCD4
Protocol: RiboTAC 7 was then assessed for its ability to affect protein levels by deactivation of a miR-21-mediated cancer circuit, i.e., derepression of PDCD4. […] Proteome-wide analysis was also completed to study the effects of 7 and a locked nucleic acid (LNA) oligonucleotide that targets miR-21-5p on the proteome. The concentrations tested of both provided similar activity (5 nM of 7 and 100 nM of the LNA), as assessed by their effect on PDCD4 levels, ˜40% enhancement. […] Neither modality affected proteins that are direct targets of miRNA let-7b-5p, further supporting that RiboTAC 7 is selectively deactivating a miR-21-mediated cancer circuit in cells (FIG. 11C-11D).
Quantification of Protein Levels by Western Blotting. MDA-MB-231 cells were treated as described in “Cell Culture.” After treatment, the medium was removed, and the cells were washed with 1× Dulbecco's phosphate-buffered saline (DPBS). Total protein was extracted using Mammalian Protein Extraction Reagent (M-PER, Thermo Scientific) according to the manufacturer's protocol. Protein concentration was measured using a Pierce Micro BCA Protein Assay kit (Fisher Scientific). […]
Western blots were quantified using ImageJ (National Institutes of Health).^12 Protein expression was normalized to […] abundance. […]

MCF-10A cells [1] = test: Boyden chamber invasion assay, MCF-10A with forced pre-miR-21 expression; details: WT pre-miR-21 plasmid
Protocol: (§1) The effect of the RiboTAC on a miR-21-associated invasive phenotype was next assessed. Treatment with 5 μM of 7 reduced the invasiveness of MDA-MB-231 cells, by ˜30% (p<0.05) (FIG. 4E-F). […] While forced expression of a mutant pre-miR-21 in which the Dovitinib-binding site is mutated also produced an invasive phenotype, the cells were insensitive to treatment with 7 (FIG. 12).
(§2) MCF-10A cells were first transfected with either a plasmid expressing pre-miR-21 (Addgene; catalog #21114) or a plasmid encoding a pre-miR-21 mutant (custom purchased from GenScript USA, Inc, FIG. 8) using jetPRIME (Polyplus), per the manufacturer's protocol (3.2 μg of plasmid per 60 mm dish). After transfection, cells (50,000 per insert) were seeded into the hanging inserts in serum free growth medium, with or without compound (0.1% final DMSO concentration). The assay was then completed as described for the MDA-MB-231 cells.

MCF-10A cells [2] = test: Boyden chamber invasion assay, MCF-10A with mutant pre-miR-21; details: Dovitinib-binding site mutated
Protocol: as §1, §2

## CNC(=O)[C@H](c1ccccc1)N(C)Cc1ccc(-c2cccc(-c3sccc3NC(=O)CCOCCOCCOCCC(=O)NCCN3CCN(c4ccc5nc(-c6c(N)c7c(F)cccc7[nH]c6=O)[nH]c5c4)CC3)c2)cc1 [RiboTAC 7, (S)—N-(2-(4-(2-(4-amino-5-fluoro-2-oxo-1,2-dihydroquinolin-3-yl)-1H-benzo[d]imidazol-6-yl)piperazin-1-yl)ethyl)-3-(2-(2-(3-((2-(4′-((methyl(2-(methylamino)-2-oxo-1-phenylethyl)amino)methyl)-[1,1′-biphenyl]-3-yl)thiophen-3-yl)amino)-3-oxopropoxy)ethoxy)ethoxy)propanamide]
pre-miR-21; 48 h treatment, RNase L expressed
  reduction of pre-miR-21 abundance: ~30%
pre-miR-21; time-course
  treatment time at which pre-miR-21 degradation is first detectable: 48 h
PDCD4; 5 nM of 7 and 100 nM of the LNA as printed
  enhancement of PDCD4 levels: ~40%
PDCD4; 5 μM, CRISPR-Control sgRNA MDA-MB-231 cells
  increase of PDCD4 protein levels: ~40%
MCF-10A cells [1]
  invasive phenotype induced by forced expression of pre-miR-21: rescued
MCF-10A cells [2]
  invasive phenotype induced by forced expression of mutant pre-miR-21: insensitive

Reference: patent publication US20260167614A1, “IDENTIFICATION OF SMALL MOLECULES THAT RECRUIT AND ACTIVATE RNASE L” (UNIVERSITY OF FLORIDA RESEARCH FOUNDATION, INCORPORATED, priority 2022, published 2026)
